Tests used:
Assay type in all cases: in vivo
Veronica persica (VERPE) [1] = assay: A. Herbicidal pre-emergence efficacy, VERPE; conditions: for Pre-emergence efficacy against VERPE: dosage 80 g/ha
Outline: (§1)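 Pre-emergence soil-surface spray in sandy loam pots, WP/EC in water plus 0.5% additive, 600 L/ha. Visual % damage rating after about 3 weeks in greenhouse vs. untreated; 0% = control-like, 100% = dead plants. Rates up to 1280 g/ha.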

Stellaria media (STEME) = assay: A. Herbicidal pre-emergence efficacy, STEME
Outline: as §1

[2] = test system: Abutilon theophrasti (ABUTH); assay: C. Herbicidal pre-emergence efficacy, ABUTH; conditions: scored after about 3 weeks
Outline: (§2)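 Pre-emergence test: formulated compounds sprayed as aqueous suspension or emulsion with 0.5% additive at 600 l/ha onto soil covering sown seeds, at rates corresponding to 320 g/ha or less. After about 3 weeks in greenhouse, efficacy scored visually as percent versus untreated controls (100% = plants dead).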

[3] = test system: Digitaria sanguinalis (DIGSA); assay: C. Herbicidal pre-emergence efficacy, DIGSA; conditions: scored after about 3 weeks
Outline: as §2

Setaria viridis (SETVI) = assay: C. Herbicidal pre-emergence efficacy, SETVI; conditions: scored after about 3 weeks
Outline: as §2

[4] = test system: Amaranthus retroflexus (AMARE); assay: B. Herbicidal post-emergence efficacy, AMARE
Outline: (§3)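 Post-emergence greenhouse test: one-leaf-stage plants, compound (WP/EC, +0.5% additive, 600 L/ha water, ≤1280 g/ha) applied to green parts; % efficacy scored visually vs untreated after ~3 wk; 100% = plants died.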

Veronica persica (VERPE) [5] = assay: B. Herbicidal post-emergence efficacy, VERPE
Outline: as §3

[6] = test system: Pharbitis purpurea (PHBPU); assay: E. Herbicidal post-emergence efficacy, PHBPU
Outline: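 Greenhouse post-emergence spray, one-leaf stage (2–3 wk after sowing, sandy loam); WP/EC formulation, aqueous + 0.5% additive, 600 l/ha water; rates 320 g/ha or less. Visual rating ~3 wk later vs untreated; 0% = control-like, 100% = dead.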

SMILES | Pre-emergence efficacy against VERPE in % (Veronica persica (VERPE) [1]; 1280 g/ha) [%] | Pre-emergence efficacy against STEME (Stellaria media (STEME); dosage 80 g/ha) [%] | Pre-emergence efficacy against STEME (Stellaria media (STEME); dosage 320 g/ha) [%] | Pre-emergence efficacy against STEME (Stellaria media (STEME); dosage 1280 g/ha) [%] | Pre-emergence efficacy against ABUTH ([2]; 80 g/ha) [%] | Pre-emergence efficacy against ABUTH ([2]; 320 g/ha) [%] | Pre-emergence efficacy against DIGSA ([3]; 80 g/ha) [%] | Pre-emergence efficacy against DIGSA ([3]; 320 g/ha) [%] | Pre-emergence efficacy against SETVI (Setaria viridis (SETVI); 80 g/ha) [%] | Pre-emergence efficacy against SETVI (Setaria viridis (SETVI); 320 g/ha) [%] | Post-emergence efficacy against AMARE ([4]; 80 g/ha) [%] | Post-emergence efficacy against AMARE ([4]; 320 g/ha) [%] | Post-emergence efficacy against AMARE ([4]; 1280 g/ha) [%] | Post-emergence efficacy against VERPE (Veronica persica (VERPE) [5]; 320 g/ha) [%] | Post-emergence efficacy against VERPE (Veronica persica (VERPE) [5]; 1280 g/ha) [%] | Post-emergence efficacy against PHBPU in % ([6]; application rate 80 g/ha) [%] | Post-emergence efficacy against PHBPU in % ([6]; application rate 320 g/ha) [%] | Pre-emergence efficacy against VERPE in % (Veronica persica (VERPE) [1]; 320 g/ha) [%] | Pre-emergence efficacy against VERPE (Veronica persica (VERPE) [1]) [%] | Post-emergence efficacy against VERPE (Veronica persica (VERPE) [5]; 80 g/ha) [%]
CCCCS(=O)(=O)Oc1ccccc1Oc1ncc(Cl)cn1 [Example I-6] | 90 | 100 | 100 | 100 | 90 | 100 | 100 | 100 | 90 | 100 | 90 | 100 | 100 | 90 | 90 | 80 | 100 | – | – | –
CC(C)CS(=O)(=O)Oc1ccccc1Oc1ncc(Cl)cn1 [Example I-7, [2-(5-Chloropyrimidin-2-yl)oxyphenyl] 2-methylpropane-1-sulfonate] | 100 | 90 | 90 | 100 | – | 100 | 100 | 100 | 100 | 100 | – | 90 | 90 | – | – | – | 90 | – | – | –
O=S(=O)(CCC(F)(F)F)Oc1ccccc1Oc1ncc(Cl)cn1 [Example I-8] | 100 | 100 | 100 | 100 | 100 | 100 | 100 | 100 | 100 | 100 | 90 | 100 | 100 | – | 90 | – | 100 | 100 | 100 | –
O=S(=O)(CCCC(F)(F)F)Oc1ccccc1Oc1ncc(Cl)cn1 [Example I-10] | 100 | 100 | 100 | 100 | 100 | 100 | 100 | 100 | 100 | 100 | 90 | 90 | 100 | – | – | 100 | 100 | 100 | 90 | –
O=S(=O)(CCCCCl)Oc1ccccc1Oc1ncc(Cl)cn1 [Example I-15] | 90 | 100 | 100 | 100 | – | 100 | 100 | 100 | 80 | 100 | 100 | 100 | 100 | 100 | 100 | 90 | 100 | 90 | – | 100
O=S(=O)(CC1CC1)Oc1ccccc1Oc1ncc(Cl)cn1 [Example I-23] | 100 | 100 | 100 | 100 | 100 | 100 | 100 | 100 | 100 | 100 | 100 | 100 | 100 | 100 | 100 | – | 100 | 100 | 90 | 90

From patent US20240174618A1, “SUBSTITUTED (2-HETEROARYLOXYPHENYL)SULFONATES, SALTS THEREOF AND THEIR USE AS HERBICIDAL AGENTS” (Bayer Aktiengesellschaft, priority 2021, published 2024)
